From patent US20250170129A1, “SENOTHERAPEUTIC AGENTS AND ALPHA-KLOTHO POLYPEPTIDES” (Mayo Foundation for Medical Education and Researc, priority 2022, published 2025)

Tests used:
α-Klotho [1] = experiment: Senolytics in naturally-aged mice, α-Klotho in urine, kidney, brain; assay type: in vivo, mouse; conditions: naturally-aged male mice 28-29-month-old, oral, vs vehicle (FIG. 4A)
Protocol: Wild-type C57BL/6 mice were randomly assigned to D+Q, Fisetin (F), or vehicle treatments. Treatments were started at age 26-27 months for old animals, and for DIO mice after 7-8 months of high fat-feeding beginning at 4 months of age. Mice were treated every 20 days with D+Q, F, or vehicle by oral gavage for 3 consecutive days in each of 3 cycles over 2 months (9 doses in total).

α-Klotho [2] = experiment: Senolytics on non-senescent human astrocytes, α-Klotho Western blot and qPCR; assay type: cell-based; conditions: Dasatinib (200 nM) plus Quercetin (10 μM) or Fisetin (10 μM), 48 hours
Protocol: FIGS. 11A-11C. […] Non-senescent human astrocytes were treated with vehicle, Dasatinib (200 nM) plus Quercetin (10 μM), or Fisetin (10 μM) for 48 hours. FIG. 11A) α-Klotho was assayed by Western blotting with GAPDH as the loading control. FIG. 11B) α-Klotho mRNA was assayed by qPCR. FIG. 11C) Non-senescent human adipose progenitor cells were treated with Dasatinib (500 nM) plus Quercetin ([…]) or vehicle for 48 hours. α-Klotho mRNA was assayed by qPCR.

α-Klotho [3] = experiment: Senolytics in mice transplanted with senescent preadipocytes, urinary α-Klotho; assay type: in vivo, mouse; conditions: young mice transplanted i.p. with senescent cells, treated after 3 months (FIG. 4C)
Protocol: FIGS. 4A-4D. Senolytics increase urinary and kidney α-Klotho in old or obese mice. FIG. 4A) Naturally-aged male mice (28-29-month-old, n=10 in each group) were treated with vehicle, Dasatinib plus Quercetin (D+Q), or Fisetin. Urinary α-Klotho was measured by ELISA and expressed as a function of creatinine. One-way ANOVA: F=6.39; p<0.0^5, R^2=0.30; *p=0.02, **p<0.01. FIG. 4B) DIO mice (male, 10-month-old, n=8) were treated with vehicle or D+Q and urinary α-Klotho was assayed by ELISA and expressed as a function of creatinine. Unpaired T test; **p<0.01. FIG. 4C) Six-month-old male mice (n=6 in each group) were transplanted i.p. with senescent preadipocytes. After 3 months, they were treated with vehicle, D+Q, or Fisetin. Urinary α-Klotho was assayed by ELISA and expressed as a function of creatinine. One-way ANOVA and post hoc Tukey's tests: Kruskal-Wallis statistic=10.19; *p=0.02, **p<0.01. FIG. 4D) Kidney α-Klotho protein was also assayed in the same transplanted mice by Western blotting. One-way ANOVA: F=24.24; p<0.001, R^2=0.83; ***p<0.001. […]
α-Klotho was assayed by ELISA in 1:100 diluted mouse urine (IBL America, #27601). […] Urine α-Klotho measurements are expressed as a function of urine volume, creatinine (R&D Systems, #KGE005), and/or cystatin C (R&D Systems, #MSCTC0).

α-Klotho [4] = experiment: Clearance of p16Ink4a-expressing cells / senolytics in old INK-ATTAC mice, α-Klotho in kidney, urine, brain; assay type: in vivo, mouse; conditions: 10 mg/kg i.p.
Protocol: AP20187 (10 mg/kg) or vehicle was administered i.p. every 2 weeks for 6 weeks. […] FIG. 3B) Kidney α-Klotho mRNA was assayed by qPCR. One-way ANOVA, F=4.81, p=0.01, R^2=0.46; *p=0.03, **p<0.01. FIG. 3C) α-Klotho protein was assayed relative to GAPDH (Western blots in FIG. 13). One-way ANOVA: F=4.81, p=0.01, R^2=0.46; *p<0.05, ****p<0.0001. FIG. 3D) Mouse urine was collected 2 days after the last dose of AP20187. Urinary α-Klotho was assayed by ELISA and expressed as a function of creatinine. One-way ANOVA, F=61.53, p<0.00001, R^2=0.90; *p=0.04, ****p<0.0001. Choroid Plexus (FIG. 3E) α-Klotho protein was assayed by immunofluorescence. One-way ANOVA, F=20.98, R^2=0.80, **p<0.01, ****p<0.0001. Hippocampal (FIG. 3F) and cerebellar (FIG. 3G) α-Klotho mRNA was assayed by qPCR. […] Means±SEM; one-way ANOVA and post hoc Tukey's tests; F=3.84, p=0.038, R^2=0.40; *p=0.04 in (FIG. 3F); *p=0.04, F=7.87, p<0.01, R^2=0.60; *p=0.03 in (FIG. 3G); F=10.85; p<0.001, R^2=0.64; *p=0.03, ***p<0.0001 in (FIG. 3H); F=5.49; p=0.01, R^2=0.49; *p<0.05, **p=0.01 in (FIG. 3I).
Old (25-26-month-old) INK-ATTAC male mice were treated with vehicle or AP20187 or D+Q (n=7). AP20187 or D+Q or vehicle was administered every 2 weeks for 6 weeks. Mouse urine was collected 5 days after the last dose of AP20187 or D+Q. Urinary α-Klotho was assayed by ELISA and expressed as a function of creatinine (FIG. 10A) or Cystatin C (FIG. 10B). One-way ANOVA, A: *p=0.038, **p=0.0066, B: *p=0.048, **p=0.0048.
INK-ATTAC mice were as described elsewhere (Baker et al., Nature, 479(7372):232-6 (2011)). Briefly, in INK-ATTAC mice, the ATTAC gene is driven by a senescence-related p16^Ink4a promoter fragment. The fusion protein product of the ATTAC “suicide” gene contains a mutated FKBP moiety that can be cross-linked by AP20187, thereby activating the ATTAC protein caspase-8 moieties, causing apoptosis. […]
Each cDNA sample was generated by reverse transcription using 1 μg RNA following the manufacturer's protocol (Thermo Fisher Scientific). […] Data were analysed by the ΔΔCt method. […]

IL-1α = IL-1α mRNA in hippocampus of old INK-ATTAC mice (qPCR); assay type: in vivo, mouse; conditions: 10 mg/kg i.p. (FIG. 3I)
Protocol: (§1) FIGS. 3A-3I. Genetic clearance of highly p16^Ink4a-expressing cells increases α-Klotho. Young (8-month-old) or old (27-29-month-old) INK-ATTAC male mice were treated with vehicle or AP20187 (n=3 young+vehicle; n=3 young+AP20187; n=7 old+vehicle; n=7 old+AP20187) to dimerize the FKBP-caspase-8 fusion protein expressed in highly p16^Ink4a-expressing cells to selectively eliminate […]. AP20187 (10 mg/kg) or vehicle was administered i.p. every 2 weeks for 6 weeks. FIG. 3A) Schematic view of treatments. FIG. 3B) Kidney α-Klotho mRNA was assayed by qPCR. One-way ANOVA, F=4.81, p=0.01, R^2=0.46; *p=0.03, **p<0.01. FIG. 3C) α-Klotho protein was assayed relative to GAPDH (Western blots in FIG. 13). One-way ANOVA: F=4.81, p=0.01, R^2=0.46; *p<0.05, ****p<0.0001. FIG. 3D) Mouse urine was collected 2 days after the last dose of AP20187. Urinary α-Klotho was assayed by ELISA and expressed as a function of creatinine. One-way ANOVA, F=61.53, p<0.00001, R^2=0.90; *p=0.04, ****p<0.0001. Choroid Plexus (FIG. 3E) α-Klotho protein was assayed by immunofluorescence. […]
(§2) Each cDNA sample was generated by reverse transcription using 1 μg RNA following the manufacturer's protocol (Thermo Fisher Scientific). […] Data were analysed by the ΔΔCt method.
(§3) Next, it was determined if removal of p16^Ink4a-expressing cells, many of which are senescent, increases α-Klotho in old mice. […]

α-Klotho [5] = experiment: Senolytics / AP20187 in young INK-ATTAC mice, kidney and urinary α-Klotho; assay type: in vivo, mouse; conditions: young (3-month-old) INK-ATTAC mice; Dasatinib (5 mg/kg) plus Quercetin (50 mg/kg) or AP20187 (10 mg/kg) (FIG. 12A)
Protocol: FIGS. 12A-12B. […] 3-month-old female INK-ATTAC mice were treated with vehicle, Dasatinib (5 mg/kg) plus Quercetin (50 mg/kg), or AP20187 (10 mg/kg). FIG. 12A) Kidneys were harvested and lysed to assay α-Klotho protein by Western blotting. FIG. 12B) Urinary α-Klotho in the same cohort was assayed by ELISA after a second and third treatment with senolytic agents and expressed as a function of creatinine.
α-Klotho was assayed by ELISA in 1:100 diluted mouse urine (IBL America, #27601). Human urine α-Klotho was assayed by ELISA (IBL America, #27998, RRID:AB_2750859). Urine α-Klotho measurements are expressed as a function of urine volume, creatinine (R&D Systems, #KGE005), and/or cystatin C (R&D Systems, #MSCTC0).
Tissue extracts were homogenized using a Bead Mill 24 homogenizer (Waltham) and lysed in NETN buffer (20 mM Tris-HCl, pH 8.0, 100 mM NaCl, 1 mM EDTA, 0.5% Nonidet P-40), 5 mM NaF, a protease inhibitor cocktail (Millipore Sigma), and 5 mM nicotinamide. After incubating 30 minutes at 4° C., samples were centrifuged at 15,000 rpm for 10 minutes at 4° C. Protein concentrations of the supernatants were determined by the Bradford protein assay (BioRad). Lysates were separated by SDS-PAGE and transferred by electrophoresis to PVDF membranes (Millipore Sigma). […]

activin A = experiment: Activin A mRNA in kidney of old INK-ATTAC mice (qPCR); assay type: in vivo, mouse; conditions: 10 mg/kg i.p. (FIG. 3H)
Protocol: as §1, §2, §3

α-Klotho [6] = experiment: Recombinant SASP factor treatment of non-senescent HBAs, α-Klotho qPCR; assay type: cell-based, human; conditions: non-senescent HBAs treated with recombinant protein (FIG. 1F)
Source text: (§4) FIGS. 1A-1F. Senescent cell conditioned medium decreases α-Klotho; blocking particular SASP factors with neutralizing antibodies partially restores α-Klotho. FIGS. 1A-1C) Conditioned media (CM) collected from senescent or non-senescent (FIG. 1A) human primary kidney endothelial cells (HKEs; one-way ANOVA: F=19.10, p<0.0001, R^2=0.89; n=3; ****p<0.0001); (FIG. 1B) human umbilical vein endothelial cells (HUVECs; one-way ANOVA: F=3.02, p=0.02, R^2=0.58, n=3; *p=0.02, **p=0.01); or (FIG. 1C) human brain astrocytes (HBAs; one-way ANOVA: F=7.93, p=0.02, R^2=0.66; n=5; ***p<0.001, *p=0.03) were applied to non-senescent HKEs, HUVECs, or HBAs, respectively, with or without antibodies against PAI-1, CXCL1, IL-6, activin A, TNF-α, IL-1α, IL-1β, or IL-18 for 48 hours. α-Klotho mRNA was assayed by qPCR. Means SEM. FIGS. 1D-1F) Primary HKEs (FIG. 1D; n=4), HUVECs (FIG. 1E; n=4), or HBAs (FIG. 1F; n=4) were treated with recombinant activin A or IL-1α. α-Klotho was assayed by qPCR 24 hours after treatments. Means±SEM; unpaired T-tests; ***p<0.001, ****p<0.0001. […]
as §2

α-Klotho [7] = experiment: Recombinant SASP factor treatment of non-senescent HUVECs, α-Klotho qPCR; assay type: cell-based, human; conditions: non-senescent HUVECs treated with recombinant protein (FIG. 1E)
Source text: as §4, §2

α-Klotho [8] = experiment: Recombinant SASP factor treatment of non-senescent HKEs, α-Klotho qPCR; assay type: cell-based, human; conditions: non-senescent HKEs treated with recombinant protein (FIG. 1D)
Source text: as §4, §2

Molecule: O=c1c(O)c(-c2ccc(O)c(O)c2)oc2cc(O)ccc12 [F, Fisetin]
- urine α-Klotho (ELISA, function of creatinine) (α-Klotho [1]): increased
- α-Klotho (Western blotting, mRNA qPCR) (α-Klotho [2]): did not increase
- urinary α-Klotho (ELISA, function of creatinine) (α-Klotho [3]): increased

Molecule: CC[C@H](C(=O)N1CCCC[C@H]1C(=O)O[C@H](CCc1ccc(OC)c(OC)c1)c1cccc(OCC(=O)NCC(CNC(=O)COc2cccc([C@@H](CCc3ccc(OC)c(OC)c3)OC(=O)[C@@H]3CCCCN3C(=O)[C@@H](CC)c3cc(OC)c(OC)c(OC)c3)c2)CN(C)C)c1)c1cc(OC)c(OC)c(OC)c1 [AP20187]
- urinary α-Klotho (ELISA, function of creatinine) (α-Klotho [4]; vs vehicle (FIG. 3D, FIG. 10)): increased
- Kidney α-Klotho (mRNA by qPCR, protein by Western blot) (α-Klotho [4]; vs vehicle (FIGS. 3B-C)): increased
- Brain α-Klotho (choroid plexus protein IF; hippocampal and cerebellar mRNA) (α-Klotho [4]; vs vehicle (FIGS. 3E-G)): increased
- IL-1α in brains (hippocampus mRNA, qPCR) (IL-1α): decreased
- kidney α-Klotho (protein, Western blotting) (α-Klotho [5]): did not increase
- activin A in kidneys (mRNA, qPCR) (activin A): decreased

B1: recombinant activin A: recombinant human activin A (R&D Systems, #338-AC) (protein, UniProt P08476 311-426, looked up)
Inhibin beta A chain: GLECDGKVNICCKKQFFVSFKDIGWNDWIIAPSGYHANYCEGECPSHIAGTSGSSLSFHSTVINHYRMRGHSPFANLKSCCVPTKLRPMSMLYYDDGQNIIKKDIQNMIVEECGCS
- expression of α-Klotho (qPCR) (α-Klotho [6]): decreased expression of α-Klotho
- expression of α-Klotho (qPCR) (α-Klotho [7]): decreased expression of α-Klotho
- expression of α-Klotho (qPCR) (α-Klotho [8]): decreased expression of α-Klotho

B2: IL-1α: recombinant human IL-1α protein (R&D Systems, #00-LA-010) (protein, UniProt P01583 113-271, looked up)
Interleukin-1 alpha: SAPFSFLSNVKYNFMRIIKYEFILNDALNQSIIRANDQYLTAAALHNLDEAVKFDMGAYKSSKDDAKITVILRISKTQLYVTAQDEDQPVLLKEMPEIPKTITGSETNLLFFWETHGTKNYFTSVAHPNLFIATKQDYWVCLAGGPPSITDFQILENQA
- expression of α-Klotho (qPCR) (α-Klotho [6]): decreased expression of α-Klotho
- expression of α-Klotho (qPCR) (α-Klotho [7]): decreased expression of α-Klotho
- expression of α-Klotho (qPCR) (α-Klotho [8]): decreased expression of α-Klotho
